The text below walks through data of patent US12065434B2, “Metabolites of GLP1R agonists” (Pfizer Inc., priority 2020, dated 2024).

A short description of data set [1]: Metabolite profiling of pooled human plasma after repeat oral dosing of Compound 1 (HPLC/UV/MS). The conditions noted are these: for Plasma Extracts: Compound 1 120 mg oral BID, Day 28, HPLC/UV/MS; for observed as major or minor metabolite in human plasma: Compound 1 120 mg BID, Day 28.
Procedure: Plasma samples from nine human subjects following oral administration of 120 mg BID for 28 days in a clinical study were examined for metabolites.
Individual subject's plasma (from nine human subjects with 120 mg BID dose Day 28) were pooled in proportion to the time period represented by each to yield a pool for profiling that was representative of the AUC (0-12 hr) according to the method of Hamilton et al. [Hamilton R A, Garnett W R, Kline B J. Determination of a mean valproic acid serum level by assay of a single pooled sample. […] Pooled plasma time points were first prepared by aliquoting equal amounts (1.0 mL) of plasma from each subject prior to making a single Hamilton pool. Blank plasma pools were made by taking equal aliquots of predose samples. To a 2 mL aliquot of each pooled plasma sample was added 6 mL of acetonitrile and then mixed. Protein precipitated samples were centrifuged for 5 minutes at 2000×g and the supernatants were transferred to other clean 15 mL centrifuge tubes. Samples were dried using an evaporative centrifuge set to 37° C. Samples were reconstituted using 0.2 mL of 5:95 acetonitrile:water and analyzed by HPLC/UV/MS.
Reconstituted samples were analyzed by positive ion HPLC/UV/MS using a Thermo Orbitrap Elite mass spectrometer operating in positive ion electrospray mode. Xcalibur software version 3.0.63 was used to control the HPLC/UV/MS system. Full scan data were collected at 15,000 resolution. Data dependent product ion scans of the two most intense ions found in the full scan were obtained at 15,000 resolution. The dynamic exclusion function was used with a 10 second exclusion duration after 3 successive product ion scans with an early exclusion if the precursor ion fell below a signal to noise ratio of 20. The HPLC system consisted of an Accela quaternary solvent delivery pump, an Accela autoinjector, an Accela PDA Plus photodiode array detector (Thermo Electron Corporation). Chromatography was performed on a Phenomenex Kinetex column (2.1 mm×100 mm, 2.6 μm) at 45° C. using a HotSleeve column heater (Analytical Sales and Services). The mobile phase was composed of 0.1% formic acid in water (solvent A) and acetonitrile (solvent B). The solvent delivery gradient program was as follows:
For a further data set, the system named is human hepatocytes. The data set can be described thus: In vitro metabolism of Compound 2 in human cryopreserved hepatocytes. The conditions noted are these: for metabolite of Compound 2 observed in human hepatocyte incubations: 10 μM Compound 2, 7.5×10^5 cells/mL, 1 and 4 hrs composite. Details: key to Relative abundance of metabolite of Compound 2, Human: ND Not detected.; trace: Trace: observed by HPLC/MS measurements only.; + Minor as assessed by HPLC/UV measurements; ++ moderate as assessed by HPLC/UV measurements; +++ major as assessed by HPLC/UV measurements.; * m/z 593 and m/z 505 co-eluted in rabbit hepatocytes.; ** m/z 591 c and m/z 593 were merged in human hepatocytes and Hepatopack.; *** m/z 607 and m/z 751 b were merged in rabbit hepatocytes. It is filed as in vitro ADME. How it is done: (§1) Male CD-1 mouse hepatocytes (lot YHL), male Wistar-Han rat hepatocytes (Celsius; product number: M000065; lot: SLA), female New Zealand rabbit hepatocytes (lot 1510147), male cryopreserved cynomolgus monkey hepatocytes (Celsius; product number: M00305; lot: DNB) and mixed-gender cryopreserved human hepatocytes (Bioreclamation; product number: S01988; lot: DCM) were obtained for the hepatocyte in-vitro assessments.
(§2) At time 0 hrs 550 μL aliquots were removed from incubations and quenched with 5 volumes of ACN containing 0.1% formic acid. At 1 and 4 hrs, 275 μL aliquots were removed and quenched as above; these were combined in the same tube to prepare a composite sample. For all hepatocyte experiments, samples were processed by centrifugation at 1900×g for 5 minutes, and then the supernatant was transferred to clean glass tubes and evaporated to dryness under a stream of N2 using a Turbovap at 37° C. Sample residues were reconstituted in mobile phase prior to analysis by HPLC/UV/MS^n.
(§3) Samples were analyzed by HPLC/UV/MS^n using a Thermo Orbitrap Elite mass spectrometer in conjunction with a Thermo Open Accela UHPLC system. A 3.0×150 mm, 2.5 μm Acquity CSH C18 HPLC column (Waters) was heated to 45° C. for separation of analytes. The mobile phase was a gradient of A): water containing 0.1% formic acid, and B): acetonitrile. The flow rate was 450 μL/min, and the following gradient program was utilized: […]
(§4) UV absorbance was monitored with a photo-diode array detector from 220-450 nm. The mass spectrometer was operated in positive-ion mode with a HESI ion source at a potential of 3.0 kV, and capillary and source heater temperatures of 380 and 300° C., respectively. Sheath, auxiliary, and sweep gas flows were set to 45, 10, and 2 units, respectively. Full scan mass spectra were acquired over the range 120-1200 m/z at a resolving power of 30,000 (specified at m/z 400). Data-dependent MS^n spectra were acquired in an automated fashion at 15,000 resolving power using CID and HCD fragmentation with normalized collision energy settings of 28 and 65 V, respectively.
(§5) Metabolites were characterized by comparisons of mass spectral fragmentation patterns with that of a Compound 2 standard. All HPLC/UV/MS^n data were processed using Xcalibur v. 2.2, and integrated UV peak areas were subjected to weighted UV binning procedures utilizing an Excel template.

The next data set concerns rat hepatocytes. In words: In vitro metabolism of Compound 2 in rat cryopreserved hepatocytes. It is filed as in vitro ADME. Further details: key to Relative abundance of metabolite of Compound 2, Rat: ND Not detected.; trace: Trace: observed by HPLC/MS measurements only.; + Minor as assessed by HPLC/UV measurements; ++ moderate as assessed by HPLC/UV measurements; +++ major as assessed by HPLC/UV measurements.; * m/z 593 and m/z 505 co-eluted in rabbit hepatocytes.; ** m/z 591 c and m/z 593 were merged in human hepatocytes and Hepatopack.; *** m/z 607 and m/z 751 b were merged in rabbit hepatocytes. The conditions noted are these: for metabolite of Compound 2 observed in rat hepatocyte incubations: 10 μM Compound 2, 7.5×10^5 cells/mL, 1 and 4 hrs composite; for Relative abundance of metabolite of Compound 2, Rat: rat cryopreserved hepatocytes, HPLC/UV/MS. How it is done:
as §1, §2, §3, §4, §5

In a further data set the test system is monkey hepatocytes. The data set can be described thus: In vitro metabolism of Compound 2 in monkey cryopreserved hepatocytes. The conditions noted are these: for metabolite of Compound 2 observed in monkey hepatocyte incubations: 10 μM Compound 2, 7.5×10^5 cells/mL, 1 and 4 hrs composite. The format is in vitro ADME, cynomolgus monkey. Further details: key to Relative abundance of metabolite of Compound 2, Monkey: ND Not detected.; trace: Trace: observed by HPLC/MS measurements only.; + Minor as assessed by HPLC/UV measurements; ++ moderate as assessed by HPLC/UV measurements; +++ major as assessed by HPLC/UV measurements.; * m/z 593 and m/z 505 co-eluted in rabbit hepatocytes.; ** m/z 591 c and m/z 593 were merged in human hepatocytes and Hepatopack.; *** m/z 607 and m/z 751 b were merged in rabbit hepatocytes. How it is done:
as §1, §2, §3, §4, §5

The subject of the next data set is rabbit hepatocytes. In words: In vitro metabolism of Compound 2 in rabbit cryopreserved hepatocytes. The format is in vitro ADME. Further details: key to Relative abundance of metabolite of Compound 2, Rabbit: ND Not detected.; trace: Trace: observed by HPLC/MS measurements only.; + Minor as assessed by HPLC/UV measurements; ++ moderate as assessed by HPLC/UV measurements; +++ major as assessed by HPLC/UV measurements.; * m/z 593 and m/z 505 co-eluted in rabbit hepatocytes.; ** m/z 591 c and m/z 593 were merged in human hepatocytes and Hepatopack.; *** m/z 607 and m/z 751 b were merged in rabbit hepatocytes. The conditions noted are these: for metabolite of Compound 2 observed in rabbit hepatocyte incubations: 10 μM Compound 2, 7.5×10^5 cells/mL, 1 and 4 hrs composite. How it is done:
as §1, §2, §3, §4, §5

A further data set has as its system mouse hepatocytes. In words: In vitro metabolism of Compound 2 in mouse cryopreserved hepatocytes. It is filed as in vitro ADME. Further details: key to Relative abundance of metabolite of Compound 2, Mouse: ND Not detected.; trace: Trace: observed by HPLC/MS measurements only.; + Minor as assessed by HPLC/UV measurements; ++ moderate as assessed by HPLC/UV measurements; +++ major as assessed by HPLC/UV measurements.; * m/z 593 and m/z 505 co-eluted in rabbit hepatocytes.; ** m/z 591 c and m/z 593 were merged in human hepatocytes and Hepatopack.; *** m/z 607 and m/z 751 b were merged in rabbit hepatocytes. As to conditions: for metabolite of Compound 2 observed in mouse hepatocyte incubations: 10 μM Compound 2, 7.5×10^5 cells/mL, 1 and 4 hrs composite. How it is done:
as §1, §2, §3, §4, §5

Regarding `N#Cc1ccc(COc2cccc(C3CCN(Cc4nc5ccc(C(=O)O)cc5n4C[C@@H]4CCO4)CC3)n2)c(F)c1` [Compound 1, 2-[(4-{6-[(4-Cyano-2-fluorobenzyl)oxy]pyridin-2-yl}piperidin-1-yl)methyl]-1-[(2S)-oxetan-2-ylmethyl]-1H-benzimidazole-6-carboxylic acid], in data set [1], the “Plasma Extracts” value was “+++”.
Turning to `N#Cc1ccc(COc2cccc(C(CCO)CCNCc3nc4ccc(C(=O)O)cc4n3C[C@@H]3CCO3)n2)c(F)c1` (stereo partly drawn) [Compound 574a, 2-(((3-(6-((4-cyano-2-fluorobenzyl)oxy)pyridin-2-yl)-5-hydroxypentyl)amino)methyl)-1-(((S)-oxetan-2-yl)methyl)-1H-benzo[d]imidazole-6-carboxylic acid], in data set [1], the “observed as major or minor metabolite in human plasma” value is recorded as “minor metabolite” and the “Plasma Extracts” value is “+”.
In the same order, the values of `N#Cc1ccc(COc2cccc(C3CCN(Cc4nc5ccc(C(=O)O)cc5n4CC(O)CCO)CC3)n2)c(F)c1` (stereo not drawn) [Compound 574b, 2-((4-(6-((4-cyano-2-fluorobenzyl)oxy)pyridin-2-yl)piperidin-1-yl)methyl)-1-(2,4-dihydroxybutyl)-1H-benzo[d]imidazole-6-carboxylic acid] are “minor metabolite” and “+”.
In the same order, the values of `N#Cc1ccc(COc2cccc(C3CCNCC3)n2)c(F)c1` [Compound M3, 3-fluoro-4-(((6-(piperidin-4-yl)pyridin-2-yl)oxy)methyl)benzonitrile] are “minor metabolite” and “+”.
Regarding `N#Cc1ccc(COc2cccc(C3(O)CCN(Cc4nc5ccc(C(=O)O)cc5n4C[C@@H]4CCO4)CC3)n2)c(F)c1` [Compound M4, (S)-2-((4-(6-((4-cyano-2-fluorobenzyl)oxy)pyridin-2-yl)-4-hydroxypiperidin-1-yl)methyl)-1-(oxetan-2-ylmethyl)-1H-benzo[d]imidazole-6-carboxylic acid], the “Plasma Extracts” value in data set [1] is “+”.
Regarding `O=C(O)c1ccc2nc(CN3CCC(c4cccc(O)c4O)CC3)n(C[C@@H]3CCO3)c2c1` [Metabolite 438, (S)-2-((4-(2,3-dihydroxyphenyl)piperidin-1-yl)methyl)-1-(oxetan-2-ylmethyl)-1H-benzo[d]imidazole-6-carboxylic acid], the “metabolite of Compound 2 observed in human hepatocyte incubations” value (shortened to “metabolite … in human hepatocyte incubations”) with human hepatocytes is recorded as “trace metabolite”. In addition, the “Relative abundance of metabolite of Compound 2, Human” value with human hepatocytes (human cryopreserved hepatocytes, HPLC/UV/MS) is listed as “trace”. Moreover, in the data set with rat hepatocytes, the “metabolite of Compound 2 observed in rat hepatocyte incubations” value (“metabolite … in rat hepatocyte incubations” below) was “trace metabolite” and the “Relative abundance of metabolite of Compound 2, Rat” value was “trace”. For the same molecule, the “metabolite of Compound 2 observed in monkey hepatocyte incubations” value (from here on “metabolite … in monkey hepatocyte incubations”) in the data set with monkey hepatocytes is “trace metabolite”. Moreover, the “Relative abundance of metabolite of Compound 2, Monkey” value in the data set on monkey hepatocytes (monkey cryopreserved hepatocytes, HPLC/UV/MS) is reported as “trace”.
On to `C[C@]1(c2ccc(Cl)cn2)Oc2cccc(C3CCN(Cc4nc5ccc(C(=O)O)cc5[nH]4)CC3)c2O1` [Metabolite 505, (S)-2-((4-(2-(5-chloropyridin-2-yl)-2-methylbenzo[d][1,3]dioxol-4-yl)piperidin-1-yl)methyl)-1H-benzo[d]imidazole-6-carboxylic acid], for which the “metabolite of Compound 2 observed in rabbit hepatocyte incubations” value (“metabolite … in rabbit hepatocyte incubations” below) in the data set on rabbit hepatocytes is recorded as “observed”. The “Relative abundance of metabolite of Compound 2, Rabbit” value with rabbit hepatocytes (rabbit cryopreserved hepatocytes, HPLC/UV/MS) is “*”. Moreover, in the data set with rat hepatocytes, the “metabolite … in rat hepatocyte incubations” value is given as “observed” and the “Relative abundance of metabolite of Compound 2, Rat” value was “trace”. For the same molecule, in the data set with mouse hepatocytes, the “metabolite of Compound 2 observed in mouse hepatocyte incubations” value (shortened to “metabolite … in mouse hepatocyte incubations”) is “observed”. Further, the “Relative abundance of metabolite of Compound 2, Mouse” value in the data set on mouse hepatocytes (mouse cryopreserved hepatocytes, HPLC/UV/MS) is on record as “trace”.
Regarding `C[C@]1(c2ccc(Cl)cn2)Oc2cccc(C3=CCN(Cc4nc5ccc(C(=O)O)cc5n4C[C@@H]4CCO4)CC3)c2O1` [Metabolite 573a], in the data set with human hepatocytes, the “metabolite … in human hepatocyte incubations” value is reported as “low-level metabolite”. Besides, the “metabolite … in rabbit hepatocyte incubations” value with rabbit hepatocytes is recorded as “low-level metabolite”. In addition, the “metabolite … in rat hepatocyte incubations” value in the data set with rat hepatocytes is given as “low-level metabolite”. Also, in the data set on monkey hepatocytes, the “metabolite … in monkey hepatocyte incubations” value is “low-level metabolite”. In addition, the “metabolite … in mouse hepatocyte incubations” value in the data set on mouse hepatocytes is on record as “low-level metabolite”.
For `C[C@]1(c2ccc(Cl)cn2)Oc2cccc(C3CC[N+]([O-])(Cc4nc5ccc(C(=O)O)cc5n4C[C@@H]4CCO4)CC3)c2O1` (stereo partly drawn) [Metabolite 591d], the “metabolite … in human hepatocyte incubations” value in the data set with human hepatocytes is recorded as “observed in all hepatocyte incubations”. Also, the “metabolite … in rabbit hepatocyte incubations” value in the data set with rabbit hepatocytes is “observed in all hepatocyte incubations”. The “metabolite … in rat hepatocyte incubations” value in the data set with rat hepatocytes is “observed in all hepatocyte incubations”. In addition, in the data set on monkey hepatocytes, the “metabolite … in monkey hepatocyte incubations” value is on record as “observed in all hepatocyte incubations”. Further, the “metabolite … in mouse hepatocyte incubations” value with mouse hepatocytes is “observed in all hepatocyte incubations”.
